Legend:
[1] = test system: SOX9; assay: quantitative RT-PCR of calvarial organ cultures: SOX9; type: cell-based; details: 7 days of culture, newborn mouse calvaria
Description: (§1) Calvarial Organ Cultures. Details have been published previously (Garrett, et al. (2003) J. Clin. Invest. 111:1771-82). Calvaria were cultured in BGJ medium supplemented with 1 mg/mL of bovine serum albumin (Cohn fraction V), 100 U/ml each of penicillin/streptomycin, and 0.292 mg/mL of glutamine. On Day 1, the calvaria were treated with synthetic oleanane triterpenoids. On Day 4, the medium was replaced with fresh medium, again containing synthetic oleanane triterpenoids. On Day 7, calvaria were collected, either stored at −80° C. for further RNA analysis or fixed in 10% buffered formalin for 24 hours and transferred to 80% ethanol for histologic analysis.
(§2) Quantitative RT-PCR (gRT-PCR). Detailed procedures for qRT-PCR are known in the art (Lee, et al. (2006) Biochem. Pharmacol. 72:332-43). In brief, 30 ng of RNA was reverse transcribed to cDNA using the random primers and Applied Biosystems' High Capacity cDNA Archive Kit in a 96-well format MASTERCYCLER Gradient from EPPENDORF. Subsequently, cDNA was amplified with ASSAYS-ON-DEMAND Products containing two gene specific primers and one TAQMAN MGB probe (6-FAM dye-labeled) using the TAQMAN Universal PCR Master Mix in an ABI PRISM 7000 Sequencing Detector (Applied Biosystems). All labeled primers were obtained from Applied Biosystems.
(§3) In addition to the histologic analysis of the calvarial cultures, mechanistic aspects of the action of both CDDO-EA and CDDO-Im were investigated in the calvaria. After 7 days of culture, RNA was isolated from the calvaria and quantitative RT-PCR analysis was performed for more than 15 different markers, including: SOX9, collagen IIα1, all three isoforms of TGF-β, BMPs 2 and 4, BMP receptor II, Smads 3, 4, 6, and 7, tissue inhibitors of metalloproteinases (TIMP-1 and TIMP-2), and matrix metalloproteinase-9 (MMP-9). […] The 50 nM dose was generally ineffective. In contrast, both triterpenoids were strong inhibitors of the expression of MMP-9; CDDO-EA (200 nM) caused almost 80% inhibition of the expression of this metalloproteinase, which is known to be involved in the degradation of cartilage (Shinoda, et al. (2008) J. Biol. Chem. 283:24632-9).

[2] = test system: COL2A1; assay: quantitative RT-PCR of calvarial organ cultures: COL2A1; type: cell-based; details: 7 days of culture, newborn mouse calvaria
Description: as §1, §2, §3

[3] = test system: newborn mouse calvaria; assay: histologic analysis of calvarial organ cultures (H&E, toluidine blue): chondrogenesis; type: cell-based; details: 200 nM, 7 days; for induction of chondrogenesis in newborn mouse calvaria (histology): H&E or toluidine blue sections; for formation of proteoglycans such as aggrecan (metachromatic toluidine blue staining): calvarial sections
Description: as §1
(§4) Histologic Analysis of Calvaria. After fixation for hours, calvaria were decalcified in EDTA, embedded in paraffin and sectioned at 4 μm. Sections were stained either with modified hematoxylin and eosin (H&E) or with toluidine blue (1% in 70% ethanol for 20 minutes, followed by destaining in 70%, 90% and 100% ethanol for 15 seconds), placed in xylene twice, and then mounted. Procedures for immunofluorescence staining have been described (Medici, et al. (2010) Nat. Med. 74:537-45). Primary antibodies against collagen type II (AB746P, Millipore), were used at 1:100 dilution; ALEXFLUOR secondary antibodies (Invitrogen) at 1:200 dilution. For nuclear staining, To-PRO-3 Iodide (T3605, Invitrogen) was used.
For the results described here, more than 300 individual calvarial organ cultures were performed. […] No new cartilage was seen on control sections stained with either H&E or toluidine blue. […] With toluidine blue, bone stained orthochromatically (blue).
With respect to dose-response to either synthetic oleanane, 200 nM appeared to be optimal. Treatment with 50 nM triterpenoid yielded only marginal induction of chondrogenesis, while treatment with 500 nM synthetic oleanane gave somewhat variable results. Treatment with […] triterpenoid was invariably toxic to the organ cultures.

[4] = test system: type II collagen (collagen IIα1); assay: immunohistochemistry of calvarial organ cultures: type II collagen; type: cell-based, mouse; details: 200 nM, calvarial sections, not seen in control sections
Description: as §1
as §4, with “used. […]” for “used.”

[5] = test system: SOX9; assay: Western blot in bone marrow stem cell cultures: SOX9; type: cell-based; details: 100 nM for 7 days, human BMSC cultures, not detectable in control
Description: (§5) Bone Marrow-Derived Stem Cell Culture and Immunoblotting. Human bone marrow-derived stromal cells, which contain a population of responsive mesenchymal stem cells (ScienCell Research Laboratories), were grown in mesenchymal stem cell medium (ScienCell Research Laboratories). Cells were serum-starved 24 hours prior to all experimental conditions. Immunoblotting was performed using the following antibodies at concentrations (and using protocols) recommended by the respective manufacturers: SOX9 (sc-20095, Santa Cruz Biotechnology), collagen IIα1 (sc-7764 and sc-28887, Santa Cruz), aggrecan (ab3778 and ab36861, Abcam), BMP-2 (ab14933, Abcam), phospho-Smad5 (9516, Cell Signaling Technology), Smad5 (9517, Cell Signaling Technology), β-actin (A1978, SigmaeAldrich). HRP-conjugated IgG TRUEBLOT reagents (18-8814, eBioscience) were used at a dilution of 1:1000.
(§6) Further studies on mechanism were pursued in human bone marrow stem cell (BMSC) cultures. […] BMP-2 is known to induce chondrogenic lineage development of human mesenchymal stem cells in culture (Schmitt, et al. (2003) Differentiation 71:567-77).

[6] = test system: collagen type 2; assay: Western blot in bone marrow stem cell cultures: collagen type 2; type: cell-based; details: 100 nM for 7 days, human BMSC cultures, not detectable in control
Description: as §5, §6

[7] = test system: aggrecan; assay: Western blot in bone marrow stem cell cultures: aggrecan; type: cell-based; details: 100 nM for 7 days, human BMSC cultures, not detectable in control
Description: as §5, §6

CCNC(=O)[C@]12CCC(C)(C)C[C@H]1[C@H]1C(=O)C=C3[C@@]4(C)C=C(C#N)C(=O)C(C)(C)[C@@H]4CC[C@@]3(C)[C@]1(C)CC2 [CDDO-EA]
SOX9 expression (quantitative RT-PCR) ([1]; 50 nM): 1.64 ± 0.17
SOX9 expression (quantitative RT-PCR) ([1]; 200 nM): 2.62 ± 0.33
SOX9 expression (quantitative RT-PCR) ([1]; 500 nM): 3.12 ± 0.38
COL2A1 expression (quantitative RT-PCR) ([2]; 50 nM): 4.12 ± 1.78
COL2A1 expression (quantitative RT-PCR) ([2]; 200 nM): 5.45 ± 1.13
COL2A1 expression (quantitative RT-PCR) ([2]; 500 nM): 3.18 ± 0.71
induction of chondrogenesis in newborn mouse calvaria (histology) [3]: marked ability to induce chondrogenesis
formation of proteoglycans such as aggrecan (metachromatic toluidine blue staining) [3]: induce the formation of proteoglycans
formation of type II collagen (collagen IIα1), immunohistochemistry [4]: induced the formation of type II collagen
expression of chondrocyte marker SOX9 (Western blot) [5]: induced expression
expression of chondrocyte marker collagen type 2 (Western blot) [6]: induced expression
expression of chondrocyte marker aggrecan (Western blot) [7]: induced expression

CC1(C)CC[C@]2(C(=O)n3ccnc3)CC[C@]3(C)[C@H](C(=O)C=C4[C@@]5(C)C=C(C#N)C(=O)C(C)(C)[C@@H]5CC[C@]43C)[C@@H]2C1 [CDDO-Im, 1-(2-cyano-3,12-dioxooleana-1,9(11)-dien-28-oyl) imidazole]
SOX9 expression (quantitative RT-PCR) ([1]; 50 nM): 1.26 ± 0.08
SOX9 expression (quantitative RT-PCR) ([1]; 200 nM): 1.33 ± 0.05
SOX9 expression (quantitative RT-PCR) ([1]; 500 nM): 1.83 ± 0.13
COL2A1 expression (quantitative RT-PCR) ([2]; 50 nM): 1.45 ± 0.09
COL2A1 expression (quantitative RT-PCR) ([2]; 200 nM): 1.32 ± 0.23
COL2A1 expression (quantitative RT-PCR) ([2]; 500 nM): 1.72 ± 0.39
induction of chondrogenesis in newborn mouse calvaria (histology) [3]: marked ability to induce chondrogenesis
formation of proteoglycans such as aggrecan (metachromatic toluidine blue staining) [3]: induce the formation of proteoglycans
formation of type II collagen (collagen IIα1), immunohistochemistry [4]: induced the formation of type II collagen
expression of chondrocyte marker SOX9 (Western blot) [5]: induced expression
expression of chondrocyte marker collagen type 2 (Western blot) [6]: induced expression
expression of chondrocyte marker aggrecan (Western blot) [7]: induced expression
